Measurements taken from a compilation of properties of binary mixtures (doi:10.1021/je300542s).

Test: xn = mol fraction of the nth substance listed
Conditions: 101 kPa

O=C1CCCN1 + CC[n+]1ccn(C)c1.F[B-](F)(F)F
speed of sound [m/s]
Conditions | 293.15 K | 298.15 K | 303.15 K | 308.15 K
x1 = 0.0786 | 1634.5 | 1622.4 | 1612.6 | 1602.5
x1 = 0.0912 | 1635 | – | 1613.4 | 1603.4
x1 = 0.1278 | 1636.6 | 1624.6 | 1615.4 | 1605.6
x1 = 0.1711 | – | 1626.5 | – | –
x1 = 0.2294 | – | – | 1620.5 | –
x1 = 0.2686 | 1642.3 | 1630.8 | 1622.3 | –
x1 = 0.3292 | 1644.6 | 1633.3 | 1624.5 | 1613.2
x1 = 0.3684 | 1646.2 | 1634.8 | 1626 | 1614
x1 = 0.4283 | 1648.7 | 1637.1 | 1627.7 | 1615
x1 = 0.4695 | 1650.2 | 1638.6 | 1628.3 | 1615.7
x1 = 0.5281 | – | 1640 | 1629.2 | 1615.9
x1 = 0.5711 | 1653.7 | 1641.1 | – | 1616.2
x1 = 0.6283 | 1655.2 | 1641.9 | 1629.5 | 1615.9
x1 = 0.6603 | 1656 | 1642.1 | 1629.2 | 1615.3
x1 = 0.7302 | 1656.7 | – | 1628 | –
x1 = 0.7598 | – | 1641.5 | 1627.1 | –
x1 = 0.8296 | 1656.4 | 1640.1 | 1624.9 | 1611
x1 = 0.8901 | – | 1638.4 | – | 1608.3

CC[n+]1ccn(C)c1.F[B-](F)(F)F + CN1CCCC1=O
speed of sound [m/s]
Conditions | 293.15 K | 298.15 K | 303.15 K | 308.15 K
x2 = 0.0696 | – | – | 1598 | 1586.4
x2 = 0.0871 | – | 1607.6 | 1595.9 | 1584.2
x2 = 0.1273 | 1615.1 | 1603.2 | – | 1579.3
x2 = 0.1676 | 1611.5 | 1599.5 | 1587.2 | –
x2 = 0.2658 | 1605.6 | 1592 | 1579 | 1565.5
x2 = 0.2689 | 1605.3 | 1592 | – | 1565.2
x2 = 0.3228 | 1603.2 | 1589 | 1575.2 | 1560.7
x2 = 0.3683 | 1601.7 | 1586.9 | – | 1557.7
x2 = 0.4291 | 1600 | 1584.2 | – | –
x2 = 0.4744 | 1599.2 | 1582.6 | 1566.9 | 1551
x2 = 0.5227 | 1597.8 | 1581 | – | 1547.9
x2 = 0.5685 | 1596.9 | 1579 | 1562.4 | 1545.4
x2 = 0.6286 | 1595 | 1576.7 | 1559.3 | 1541.5
x2 = 0.6703 | 1593 | 1574.5 | – | 1539
x2 = 0.7291 | 1590.1 | 1571.2 | 1553.4 | 1534.5
x2 = 0.7711 | 1587.7 | – | 1550.1 | 1531.2
x2 = 0.8188 | 1584 | 1564.7 | – | –
x2 = 0.8887 | 1577.9 | 1558.4 | 1539.7 | 1520.3
